Earlier results in PMC4191344, “Identification and characterization of Aβ peptide interactors in Alzheimer’s disease by structural approaches” (Frontiers in Aging Neuroscience, 2014).

Tested on: Aβ
Details: in vitro; ref Pollio et al., 2008
Text: Early literature was somewhat conflicting explicating the role of the EP24.15 metalloenzyme in the etiology of AD. This enzyme was originally erroneously thought to be the β-secretase activity initiating the processing of the APP into Aβ (Papastoitsis et al., [1994]) prior to the discovery of the beta amyloid cleaving enzyme-1 (BACE-1). The EP24.15 gene is located at a chromosomal locus that is close to a region involved with early onset AD (Meckelein et al., [1996]). […] In older transgenic animals, EP24.15 protein was increased in the hippocampus, supportive of a role in Aβ clearance though there was no attributable mechanism.

EP24.15: soluble, 77 kD metalloendopeptidase in the family of zinc metallopeptidases
inhibition of Aβ toxicity by EP24.15 expression: inhibit the toxicity of Aβ in vitro
